Assay results as given in article PMC10761377 (2023).

Experiments:
[1] = test system: FPAS (fipronil aptamer Short) (DNA, aptamer) AGTTTCTGGAGGACTGGGCGGGGTGACGGTTATG; assay: electrochemical competitive replacement assay (chronoamperometry); details: free fipronil displaces 1 µM-loaded aptamer from immobilised fipronil; 1 h
[2] = test system: FPAP (fipronil aptamer with primers) (DNA, aptamer) TGTACCGTCTGAGCGATTCGTACAGTTTCTGGAGGACTGGGCGGGGTGACGGTTATGAGCCAGTCAGTGTTAAGGAGTGC; assay: chronoamperometric binding titration on SPCE (streptavidin-HRP/TMB); details: NaCl 100 mM, MgCl2 2 mM; Tris-HCl 20 mM; 30 min; apparent; immobilised compound (amide-linked to poly-2-aminobenzoic acid electrode); logistic fit
[3] = test system: FPAS (fipronil aptamer Short) (DNA, aptamer) AGTTTCTGGAGGACTGGGCGGGGTGACGGTTATG; assay: as above; details: NaCl 100 mM, MgCl2 2 mM; Tris-HCl 20 mM; 30 min; apparent; immobilised compound (amide-linked to poly-2-aminobenzoic acid electrode); logistic fit

- binding [1]: yes
- KD [2]: 0.0943 ± 0.0005 µM
- KD [3]: 0.0249 ± 0.0017 µM
Structure (SMILES): N#Cc1nn(-c2c(Cl)cc(C(F)(F)F)cc2Cl)c(N)c1S(=O)C(F)(F)F (stereo not drawn)
